From US8741836B2, “Polypeptides” (Novo Nordisk A/S, priority 2011, dated 2014)
Starred links: 1 amine or outer side, 2 acyl side, 3 side chain; linkers in the order of their positions; H or OH if unused. Positions of bridges follow the written chain, without caps; N, C: chain ends. Residues, ends and D or L forms follow the SMILES beside them. Groups on a side chain read outwards from the residue. *: point of attachment. C20 diacid = O=C(O)CCCCCCCCCCCCCCCCCCC(=O)*; γGlu = O=C(O)[C@H](CCC(=O)[*:2])N[*:1]; AEEA = NCCOCCOCC(=O)O

Assay: Assay (III) ThT fibrillation assay for physical stability
Format: physicochemical
Details: for ThT pH 4.0 lag time: pH 4.0, ThT fibrillation assay
In short: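 Freshly prepared, pH-adjusted formulations with 1 μM ThT incubated at 37 °C under 960 rpm orbital shaking (1 mm), fluorescence (ex 444, em 485 nm) read every 20 min. […] Peptide content before and after measured by reverse-phase HPLC against pramlintide standard.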

| Structure (SMILES) | ThT pH 4.0 lag time (physical stability in fibrillogenesis assay) [h] | ThT pH 4.0 lag time [h] |
| --- | --- | --- |
| CC[C@H](C)[C@H](NC(=O)[C@@H]1CCCN1C(=O)CNC(=O)[C@H](Cc1ccccc1)NC(=O)[C@H](CC(N)=O)NC(=O)[C@H](CC(N)=O)NC(=O)[C@H](CO)NC(=O)[C@H](CO)NC(=O)[C@H](Cc1c[nH]cn1)NC(=O)[C@H](Cc1c[nH]cn1)NC(=O)[C@H](CC(C)C)NC(=O)[C@H](Cc1ccccc1)NC(=O)[C@H](CCC(=O)O)NC(=O)[C@H](C)NC(=O)[C@H](CC(C)C)NC(=O)[C@H](CCCCN)NC(=O)[C@H](CCC(N)=O)NC(=O)[C@@H](NC(=O)[C@H](C)NC(=O)[C@@H]1CSSC[C@H](NC(=O)[C@H](CCCCN)NC(=O)CC[C@H](NC(=O)CCCCCCCCCCCCCCCCCCC(=O)O)C(=O)O)C(=O)N[C@@H](CC(N)=O)C(=O)N[C@@H]([C@@H](C)O)C(=O)N[C@@H](C)C(=O)N[C@@H]([C@@H](C)O)C(=O)N1)[C@@H](C)O)C(=O)N[C@@H](CC(C)C)C(=O)N1CCC[C@H]1C(=O)N1CCC[C@H]1C(=O)N[C@H](C(=O)N[C@@H](CC(N)=O)C(=O)N[C@H](C(=O)NCC(=O)N[C@@H](CO)C(=O)N[C@@H](CC(N)=O)C(=O)N[C@H](C(=O)N1CCC[C@H]1C(N)=O)[C@@H](C)O)C(C)C)[C@@H](C)O [Example 145, N-alpha-[(S)-4-Carboxy-4-(19-carboxynonadecanoylamino)butyryl]-[Lys11,Glu14,His17,Pro37]-pramlintide] ({C20 diacid-γGlu}-KCNTATCATQKLAEFLHHSSNNFGPILPPTNVGSNTP-NH2; disulfide 2-7) | >45 | >45 |
| CC[C@H](C)[C@H](NC(=O)[C@@H]1CCCN1C(=O)CNC(=O)[C@H](Cc1ccccc1)NC(=O)[C@H](CC(N)=O)NC(=O)[C@@H](NC(=O)[C@H](CO)NC(=O)[C@H](CO)NC(=O)[C@H](Cc1c[nH]cn1)NC(=O)[C@H](Cc1c[nH]cn1)NC(=O)[C@H](CC(C)C)NC(=O)[C@H](Cc1ccccc1)NC(=O)[C@H](CCC(=O)O)NC(=O)[C@H](C)NC(=O)[C@H](CC(C)C)NC(=O)[C@H](CCCNC(=N)N)NC(=O)[C@H](CCC(N)=O)NC(=O)[C@@H](NC(=O)[C@H](C)NC(=O)[C@@H]1CSSC[C@H](NC(=O)[C@H](CCCCN)NC(=O)CC[C@H](NC(=O)CCCCCCCCCCCCCCCCCCC(=O)O)C(=O)O)C(=O)N[C@@H](CC(N)=O)C(=O)N[C@@H]([C@@H](C)O)C(=O)N[C@@H](C)C(=O)N[C@@H]([C@@H](C)O)C(=O)N1)[C@@H](C)O)[C@@H](C)O)C(=O)N[C@@H](CC(C)C)C(=O)N1CCC[C@H]1C(=O)N1CCC[C@H]1C(=O)N[C@H](C(=O)N[C@@H](CC(N)=O)C(=O)N[C@H](C(=O)NCC(=O)N[C@@H](CO)C(=O)N[C@@H](CC(N)=O)C(=O)N[C@H](C(=O)N1CCC[C@H]1C(N)=O)[C@@H](C)O)C(C)C)[C@@H](C)O [Example 146, N-alpha-[(S)-4-Carboxy-4-(19-carboxynonadecanoylamino)butyryl]-[Glu14,His17,Thr21,Pro37]-pramlintide] ({C20 diacid-γGlu}-KCNTATCATQRLAEFLHHSSTNFGPILPPTNVGSNTP-NH2; disulfide 2-7) | >45 | >45 |
| CC[C@H](C)[C@H](NC(=O)[C@@H]1CCCN1C(=O)CNC(=O)[C@H](Cc1ccccc1)NC(=O)[C@H](CC(N)=O)NC(=O)[C@H](CCCCNC(=O)COCCOCCNC(=O)COCCOCCNC(=O)CC[C@H](NC(=O)CCCCCCCCCCCCCCCCCCC(=O)O)C(=O)O)NC(=O)[C@H](CO)NC(=O)[C@H](CO)NC(=O)[C@H](CCCNC(=N)N)NC(=O)[C@@H](NC(=O)[C@H](CC(C)C)NC(=O)[C@H](Cc1ccccc1)NC(=O)[C@H](CCC(=O)O)NC(=O)[C@H](C)NC(=O)[C@H](CC(C)C)NC(=O)[C@H](CCCNC(=N)N)NC(=O)[C@H](CCC(N)=O)NC(=O)[C@@H](NC(=O)[C@H](C)NC(=O)[C@@H]1CSSC[C@H](NC(=O)[C@@H](N)CCCCN)C(=O)N[C@@H](CC(N)=O)C(=O)N[C@@H]([C@@H](C)O)C(=O)N[C@@H](C)C(=O)N[C@@H]([C@@H](C)O)C(=O)N1)[C@@H](C)O)C(C)C)C(=O)N[C@@H](CC(C)C)C(=O)N[C@@H](CO)C(=O)N[C@@H](CCCNC(=N)N)C(=O)N[C@H](C(=O)N[C@@H](CC(N)=O)C(=O)N[C@H](C(=O)NCC(=O)N[C@@H](CO)C(=O)N[C@@H](CCCNC(=N)N)C(=O)N[C@H](C(=O)N[C@@H](Cc1ccc(O)cc1)C(N)=O)[C@@H](C)O)C(C)C)[C@@H](C)O [Example 150, N-epsilon21-[2-(2-{2-[2-(2-{2-[(S)-4-Carboxy-4-(19-carboxyheptadecanoylamino)butyrylamino]ethoxy}ethoxy)acetylamino]ethoxy}ethoxy)acetyl]-[Glu14,Arg18,Lys21,Ser28,Arg29,Arg35]-pramlintide] (H-KCNTATCATQRLAEFLVRSSK([AEEA-AEEA-γGlu-C20 diacid])NFGPILSRTNVGSRTY-NH2; disulfide 2-7) | >45 |  |
| CC[C@H](C)[C@H](NC(=O)[C@@H]1CCCN1C(=O)CNC(=O)[C@H](Cc1ccccc1)NC(=O)[C@H](CC(N)=O)NC(=O)[C@H](CCC(N)=O)NC(=O)[C@H](CO)NC(=O)[C@H](CO)NC(=O)[C@H](Cc1c[nH]cn1)NC(=O)[C@H](CCCNC(=N)N)NC(=O)[C@H](CC(C)C)NC(=O)[C@H](Cc1ccccc1)NC(=O)[C@H](CCC(=O)O)NC(=O)[C@H](C)NC(=O)[C@H](CC(C)C)NC(=O)[C@H](CCCNC(=N)N)NC(=O)[C@H](CCC(N)=O)NC(=O)[C@@H](NC(=O)[C@H](C)NC(=O)[C@@H]1CSSC[C@H](NC(=O)[C@H](CCC(=O)O)NC(=O)[C@H](CCCNC(=N)N)NC(=O)[C@H](CCC(=O)O)NC(=O)CC[C@H](NC(=O)CCCCCCCCCCCCCCCCCCC(=O)O)C(=O)O)C(=O)N[C@@H](CC(N)=O)C(=O)N[C@@H]([C@@H](C)O)C(=O)N[C@@H](C)C(=O)N[C@@H]([C@@H](C)O)C(=O)N1)[C@@H](C)O)C(=O)N[C@@H](CC(C)C)C(=O)N1CCC[C@H]1C(=O)N1CCC[C@H]1C(=O)N[C@H](C(=O)N[C@@H](CC(N)=O)C(=O)N[C@H](C(=O)NCC(=O)N[C@@H](CO)C(=O)N[C@@H](CC(N)=O)C(=O)N[C@H](C(=O)N1CCC[C@H]1C(N)=O)[C@@H](C)O)C(C)C)[C@@H](C)O [Example 161, N-alpha-[(S)-4-Carboxy-4-(19-carboxynonadecanoylamino)butyryl]-Glu-Arg-[Glu1,Glu14,Arg17,Gln21,Pro37]-pramlintide] ({C20 diacid-γGlu}-ERECNTATCATQRLAEFLRHSSQNFGPILPPTNVGSNTP-NH2; disulfide 4-9 (inferred)) | >45 | >45 |

Now from value to compound:

| ThT pH 4.0 lag time (physical stability in fibrillogenesis assay) [h] | ThT pH 4.0 lag time [h] | Structure (SMILES) |
| --- | --- | --- |
| >45 | >45 | CC[C@H](C)[C@H](NC(=O)[C@@H]1CCCN1C(=O)CNC(=O)[C@H](Cc1ccccc1)NC(=O)[C@H](CC(N)=O)NC(=O)[C@H](CCC(N)=O)NC(=O)[C@H](CO)NC(=O)[C@H](CO)NC(=O)[C@H](Cc1c[nH]cn1)NC(=O)[C@H](CCCNC(=N)N)NC(=O)[C@H](CC(C)C)NC(=O)[C@H](Cc1ccccc1)NC(=O)[C@H](CCC(=O)O)NC(=O)[C@H](C)NC(=O)[C@H](CC(C)C)NC(=O)[C@H](CCCNC(=N)N)NC(=O)[C@H](CCC(N)=O)NC(=O)[C@@H](NC(=O)[C@H](C)NC(=O)[C@@H]1CSSC[C@H](NC(=O)[C@H](CCC(=O)O)NC(=O)[C@H](CCCNC(=N)N)NC(=O)[C@H](CCC(=O)O)NC(=O)CC[C@H](NC(=O)CCCCCCCCCCCCCCCCCCC(=O)O)C(=O)O)C(=O)N[C@@H](CC(N)=O)C(=O)N[C@@H]([C@@H](C)O)C(=O)N[C@@H](C)C(=O)N[C@@H]([C@@H](C)O)C(=O)N1)[C@@H](C)O)C(=O)N[C@@H](CC(C)C)C(=O)N1CCC[C@H]1C(=O)N1CCC[C@H]1C(=O)N[C@H](C(=O)N[C@@H](CC(N)=O)C(=O)N[C@H](C(=O)NCC(=O)N[C@@H](CO)C(=O)N[C@@H](CCC(N)=O)C(=O)N[C@H](C(=O)N1CCC[C@H]1C(N)=O)[C@@H](C)O)C(C)C)[C@@H](C)O [Example 162, N-alpha-[(S)-4-Carboxy-4-(19-carboxynonadecanoylamino)butyryl]-Glu-Arg-[Glu1,Glu14,Arg17,Gln21,Gln35,Pro37]-pramlintide] ({C20 diacid-γGlu}-ERECNTATCATQRLAEFLRHSSQNFGPILPPTNVGSQTP-NH2; disulfide 4-9 (inferred); C-terminus assumed) |
| >45 | >45 | CC[C@H](C)[C@H](NC(=O)[C@@H]1CCCN1C(=O)CNC(=O)[C@H](Cc1ccccc1)NC(=O)[C@H](CC(N)=O)NC(=O)[C@H](CCC(N)=O)NC(=O)[C@H](CO)NC(=O)[C@H](CO)NC(=O)[C@H](Cc1c[nH]cn1)NC(=O)[C@H](CCCNC(=N)N)NC(=O)[C@H](CC(C)C)NC(=O)[C@H](Cc1ccccc1)NC(=O)[C@H](CCC(=O)O)NC(=O)[C@H](C)NC(=O)[C@H](CC(C)C)NC(=O)[C@H](CCCNC(=N)N)NC(=O)[C@H](CCC(N)=O)NC(=O)[C@@H](NC(=O)[C@H](C)NC(=O)[C@@H]1CSSC[C@H](NC(=O)[C@H](CCC(=O)O)NC(=O)[C@H](CCCNC(=N)N)NC(=O)[C@H](CCC(=O)O)NC(=O)CC[C@H](NC(=O)CCCCCCCCCCCCCCCCCCC(=O)O)C(=O)O)C(=O)N[C@@H](CC(N)=O)C(=O)N[C@@H]([C@@H](C)O)C(=O)N[C@@H](C)C(=O)N[C@@H]([C@@H](C)O)C(=O)N1)[C@@H](C)O)C(=O)N[C@@H](CC(C)C)C(=O)N1CCC[C@H]1C(=O)N1CCC[C@H]1C(=O)N[C@H](C(=O)N[C@@H](CCC(N)=O)C(=O)N[C@H](C(=O)NCC(=O)N[C@@H](CO)C(=O)N[C@@H](CCC(N)=O)C(=O)N[C@H](C(=O)N1CCC[C@H]1C(N)=O)[C@@H](C)O)C(C)C)[C@@H](C)O [Example 163, N-alpha-[(S)-4-Carboxy-4-(19-carboxynonadecanoylamino)butyryl]-Glu-Arg-[Glu1,Glu14,Arg17,Gln21,Gln31,Gln35,Pro37]-pramlintide] ({C20 diacid-γGlu}-ERECNTATCATQRLAEFLRHSSQNFGPILPPTQVGSQTP-NH2; disulfide 4-9 (inferred)) |
